Laboratory results published in US20240083861A1, “HSD17B13 INHIBITORS AND USES THEREOF” (FL2022-001, Inc., priority 2020, published 2024).
Counter-ions that a name gives are not always drawn.

Biological target: T1, Recombinant human HSD17B13 enzyme (Homo sapiens, UniProt Q7Z5P4)
T1 sequence (Q7Z5P4 20-300): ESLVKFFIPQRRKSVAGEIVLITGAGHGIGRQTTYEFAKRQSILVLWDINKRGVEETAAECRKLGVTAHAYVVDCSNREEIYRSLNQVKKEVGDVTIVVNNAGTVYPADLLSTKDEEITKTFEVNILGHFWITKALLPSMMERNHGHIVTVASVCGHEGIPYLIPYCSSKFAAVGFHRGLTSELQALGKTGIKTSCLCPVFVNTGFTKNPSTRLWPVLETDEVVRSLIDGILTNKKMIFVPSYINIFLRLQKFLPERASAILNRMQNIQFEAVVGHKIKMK
Experiment: HSD17b13 NAD(P)H-Glo biochemical assay
Conditions: for IC50: 50 uM estradiol, 1 mM NAD+, NAD(P)H-Glo luminescence, read-out: HSD17β13 IC50; for inhibition at 30 µM: at 30 uM compound, read-out: HSD17β13 % inhibition at 30 uM
In short: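 Luminescent NAD(P)H-Glo read-out, taken after 1 hour at RT, measured cofactor reduction. Substrate and cofactor were estradiol at 50 uM and NAD+ at 1 mM final, reacted with the recombinant human enzyme for 3 hours at 37° C in 20 mM Tris pH7.4, 0.002% Tween-20, 0.02% BSA. Compound was pre-incubated with enzyme for 20 minutes at RT.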

Row | Structure (SMILES) | IC50 | inhibition at 30 µM
1 | Cn1nc(-c2cc(C(F)(F)F)c(F)c(O)c2F)c2cnc(N3CCN(C(=O)NC4CCCCC4)CC3)nc21 [Compound 18.125, N-Cyclohexyl-4-(3-(2,4-difluoro-3-hydroxy-5-(trifluoromethyl)phenyl)-1-methyl-1H-pyrazolo[3,4-d]pyrimidin-6-y1)piperazine-1-carboxamide] | < 100 nM | 
2 | Cn1nc(-c2cc(C(F)(F)F)c(F)c(O)c2F)c2cnc(N3CCN(C(=O)CN4CCOCC4)CC3)nc21 [Compound 18.126, 1-(4-(3-(2,4-Difluoro-3-hydroxy-5-(trifluoromethyl)phenyl)-1-methyl-1H-pyrazolo[3,4-d]pyrimidin-6-y1)piperazin-1-yl)-2-morpholinoethan-1-one] | 100 to 1000 nM | 
3 | Cn1nc(-c2cc(C(F)(F)F)c(F)c(O)c2F)c2cnc(N3CCN(C(=O)C4CCOCC4)CC3)nc21 [Compound 18.127, (4-(3-(2,4-Difluoro-3-hydroxy-5-(trifluoromethyl)phenyl)-1-methyl-1H-pyrazolo[3,4-d]pyrimidin-6-yl)piperazin-1-yl)(tetrahydro-2H-pyran-4-yl)methanone] | 100 to 1000 nM | 
4 | Cn1nc(-c2cc(C(F)(F)F)c(F)c(O)c2F)c2cnc(N3CCN(C(=O)c4cccnc4)CC3)nc21 [Compound 18.128, (4-(3-(2,4-Difluoro-3-hydroxy-5-(trifluoromethyl)phenyl)-1-methyl-1H-pyrazolo[3,4-d]pyrimidin-6-yl)piperazin-1-yl)(pyridin-3-yl)methanone] | 100 to 1000 nM | 
5 | CC(=O)N1CCN(c2ncc3c(-c4cc(C(F)(F)F)c(F)c(O)c4F)nn(C)c3n2)C2(CC2)C1 [Compound 18.129, 1-(4-(3-(2,4-Difluoro-3-hydroxy-5-(trifluoromethyl)phenyl)-1-methyl-1H-pyrazolo[3,4-d]pyrimidin-6-yl)-4,7-diazaspiro[2.5]octan-7-yl)ethan-1-one] | < 100 nM | 
6 | Cn1nc(-c2cc(C(F)(F)F)c(F)c(O)c2F)c2cnc(N3CCOCC3C3CCCCC3)nc21 (stereo not drawn) [Compound 18.130, 3-(6-(3-Cyclohexylmorpholino)-1-methyl-1H-pyrazolo[3,4-d]pyrimidin-3-y1)-2,6-difluoro-5-(trifluoromethyl)phenol] | < 100 nM | 
7 | Cn1nc(-c2cc(C(F)(F)F)c(F)c(O)c2F)c2cnc(N3CCO[C@@H](CO)C3)nc21 [Compound 18.131, (R)-2,6-Difluoro-3-(6-(2-(hydroxymethyl)morpholino)-1-methyl-1H-pyrazolo[3,4-d]pyrimidin-3-y1)-5-(trifluoromethyl)phenol] | 100 to 1000 nM | 
8 | Cn1nc(-c2cc(C(F)(F)F)c(F)c(O)c2F)c2cnc(N3CCOCC3)nc21 [Compound 18.132, 2,6-Difluoro-3-(1-methyl-6-morpholino-1H-pyrazolo[3,4-d]pyrimidin-3-y1)-5-(trifluoromethyl)phenol] | < 100 nM | 
9 | CN(c1ncc2c(-c3cc(C(F)(F)F)c(F)c(O)c3F)nn(C)c2n1)C1CCNCC1 [Compound 19, 2,6-Difluoro-3-(1-methyl-6-(methyl(piperidin-4-yl)amino)-1H-pyrazolo[3,4-d]pyrimidin-3-y1)-5-(trifluoromethyl)phenol] | 100 to 1000 nM | 
10 | CC(=O)N1CCC(N(C)c2ncc3c(-c4cc(C(F)(F)F)c(F)c(O)c4F)nn(C)c3n2)CC1 [Compound 19.01, 1-(4-((3-(2,4-Difluoro-3-hydroxy-5-(trifluoromethyl)phenyl)-1-methyl-1H-pyrazolo[3,4-d]pyrimidin-6-y1)(methyl)amino)piperidin-1-yl)ethan-1-one] | < 100 nM | 
11 | Cn1nc(-c2cc(C(F)(F)F)c(F)c(O)c2F)c2cnc(N(Cc3ccccc3)C3CCOCC3)nc21 [Compound 19.02, 3-(6-(Benzyl(tetrahydro-2H-pyran-4-yl)amino)-1-methyl-1H-pyrazolo[3,4-d]pyrimidin-3-y1)-2,6-difluoro-5-(trifluoromethyl)phenol] | < 100 nM | 
12 | Cn1nc(-c2cc(C(F)(F)F)c(F)c(O)c2F)c2cnc(N3CCNC4(CCC4)C3)nc21 [Compound 20, 2,6-Difluoro-3-(1-methyl-6-(5,8-diazaspiro[3.5]nonan-8-yl)-1H-pyrazolo[3,4-d]pyrimidin-3-y1)-5-(trifluoromethyl)phenol HCl salt] | < 100 nM | 
13 | CNC(=O)N1CCN(c2ncc3c(-c4cc(C(F)(F)F)c(F)c(O)c4F)nn(C)c3n2)CC12CCC2 [Compound 20.01, 8-(3-(2,4-Difluoro-3-hydroxy-5-(trifluoromethyl)phenyl)-1-methyl-1H-pyrazolo[3,4-d]pyrimidin-6-yl)-N-methyl-5,8-diazaspiro[3.5]nonane-5-carboxamide] | < 100 nM | 
14 | CN(C)C(=O)N1CCN(c2ncc3c(-c4cc(C(F)(F)F)c(F)c(O)c4F)nn(C)c3n2)CC12CCC2 [Compound 20.02, 8-(3-(2,4-Difluoro-3-hydroxy-5-(trifluoromethyl)phenyl)-1-methyl-1H-pyrazolo[3,4-d]pyrimidin-6-yl)-N,N-dimethy1-5,8-diazaspiro[3.5]nonane-5-carboxamide] | < 100 nM | 
15 | COC(=O)N1CCN(c2ncc3c(-c4cc(C(F)(F)F)c(F)c(O)c4F)nn(C)c3n2)CC12CCC2 [Compound 20.03, Methyl 8-(3-(2,4-difluoro-3-hydroxy-5-(trifluoromethyl)phenyl)-1-methyl-1H-pyrazolo[3,4-d]pyrimidin-6-yl)-5,8-diazaspiro[3.5]nonane-5-carboxylate] | < 100 nM | 
16 | C[C@@H]1CN(C(=O)Nc2ccccc2)CCN1c1cc2c(cn1)c(-c1cc(C(F)(F)F)c(F)c(O)c1F)nn2C [Compound 21, (R)-4-(3-(2,4-Difluoro-3-hydroxy-5-(trifluoromethyl)phenyl)-1-methyl-1H-pyrazolo[4,3-c]pyridin-6-yl)-3-methyl-N-phenylpiperazine-1-carboxamide] | < 100 nM | 
17 | Cn1nc(-c2cc(C(F)(F)F)c(F)c(O)c2F)c2cnc(N3CCN(C(=O)Nc4ccccc4)CC3)cc21 [Compound 21.01, 4-(3-(2,4-Difluoro-3-hydroxy-5-(trifluoromethyl)phenyl)-1-methyl-1H-pyrazolo[4,3-c]pyridin-6-y1)-N-phenylpiperazine-1-carboxamide] | < 100 nM | 
18 | C[C@H]1CN(C(=O)Nc2ccccc2)CCN1c1cc2c(cn1)c(-c1cc(C(F)(F)F)c(F)c(O)c1F)nn2C [Compound 21.02, (S)-4-(3-(2,4-Difluoro-3-hydroxy-5-(trifluoromethyl)phenyl)-1-methyl-1H-pyrazolo[4,3-c]pyridin-6-y1)-3-methyl-N-phenylpiperazine-1-carboxamide] | < 100 nM | 
19 | Cn1nc(-c2cc(C(F)(F)F)c(F)c(O)c2F)c2cnc(N3CCN(C(=O)Nc4ccccc4)CC3(C)C)cc21 [Compound 21.03, 4-(3-(2,4-Difluoro-3-hydroxy-5-(trifluoromethyl)phenyl)-1-methyl-1H-pyrazolo[4,3-c]pyridin-6-y1)-3,3-dimethyl-N-phenylpiperazine-1-carboxamide] | < 100 nM | 
20 | Cn1nc(-c2cc(C(F)(F)F)c(F)c(O)c2F)c2cnc(N3CCN(C(=O)Nc4ccccc4)CC34CC4)cc21 [Compound 21.04, 4-(3-(2,4-Difluoro-3-hydroxy-5-(trifluoromethyl)phenyl)-1-methyl-1H-pyrazolo[4,3-c]pyridin-6-y1)-N-phenyl-4,7-diazaspiro[2.5]octane-7-carboxamide] | < 100 nM | 
21 | Cn1nc(-c2cc(C(F)(F)F)c(F)c(O)c2F)c2cnc(N3CCN(C(=O)Nc4ccccc4)CC34CCC4)cc21 [Compound 21.05, 5-(3-(2,4-Difluoro-3-hydroxy-5-(trifluoromethyl)phenyl)-1-methyl-1H-pyrazolo[4,3-c]pyridin-6-y1)-N-phenyl-5,8-diazaspiro[3.5]nonane-8-carboxamide] | < 100 nM | 
22 | C[C@H]1CN(c2cc3c(cn2)c(-c2cc(C(F)(F)F)c(F)c(O)c2F)nn3C)CCN1C(=O)Nc1ccccc1 [Compound 21.06, (S)-4-(3-(2,4-Difluoro-3-hydroxy-5-(trifluoromethyl)phenyl)-1-methyl-1H-pyrazolo[4,3-c]pyridin-6-y1)-2-methyl-N-phenylpiperazine-1-carboxamide] | < 100 nM | 
23 | C[C@@H]1CN(c2cc3c(cn2)c(-c2cc(C(F)(F)F)c(F)c(O)c2F)nn3C)CCN1C(=O)Nc1ccccc1 [Compound 21.07, (R)-4-(3-(2,4-Difluoro-3-hydroxy-5-(trifluoromethyl)phenyl)-1-methyl-1H-pyrazolo[4,3-c]pyridin-6-y1)-2-methyl-N-phenylpiperazine-1-carboxamide] | < 100 nM | 
24 | Cn1nc(-c2cc(C(F)(F)F)c(F)c(O)c2F)c2cnc(N3CCN(C(=O)Nc4ccccc4)C4(CC4)C3)cc21 [Compound 21.08, 7-(3-(2,4-Difluoro-3-hydroxy-5-(trifluoromethyl)phenyl)-1-methyl-1H-pyrazolo[4,3-c]pyridin-6-y1)-N-phenyl-4,7-diazaspiro[2.5]octane-4-carboxamide] | < 100 nM | 
25 | CN(c1cc2c(cn1)c(-c1nc(C(F)(F)F)c(F)c(O)c1F)nn2C)C1CCOCC1 [Compound 22, 3,5-Difluoro-2-(1-methyl-6-(methyl(tetrahydro-2H-pyran-4-yl)amino)-1H-pyrazolo[4,3-c]pyridin-3-yl)-6-(trifluoromethyl)pyridin-4-ol] | 100 to 1000 nM | 
26 | O=C(NC1CCC1)c1ccc2oc(-c3cc(O)cc(C(F)(F)F)c3F)nc2c1 [Compound 23, N-Cyclobuty1-2-(2-fluoro-5-hydroxy-3-(trifluoromethyl)phenyl)benzo[d] oxazole-5-carboxamide] |  | 20%
27 | O=C(NC12CC(C1)C2)c1ccc2oc(-c3c(F)cc(F)c(O)c3F)nc2c1 [Compound 23.01, N-(Bicyclo[1.1.1]pentan-1-y1)-2-(2,4,6-trifluoro-3-hydroxyphenyl)benzo[d]oxazole-5-carboxamide] |  | < 20%
